Measurements published in ChEMBL document CHEMBL2396648, “Potent suppression of c-di-GMP synthesis via I-site allosteric inhibition of diguanylate cyclases with 2'-F-c-di-GMP” (Bioorg Med Chem, 2013).
Activity calls are given as the source filed them. The calls are words filed in the database; no cut-off is given here.

Tests used:
[1] = test system: Pseudomonas aeruginosa PA14; test: Inhibition of Pseudomonas aeruginosa PA14 diguanylate cyclase PA1107 using [32P]-GTP as substrate at 100 uM after 120 mins by thin layer chromatographic analysis
[2] = test system: Pseudomonas aeruginosa PA14; test: Inhibition of Pseudomonas aeruginosa PA14 PvrR using [32P]-GTP as substrate at 100 uM after 120 mins by thin layer chromatographic analysis
[3] = Competitive binding affinity to Pseudomonas aeruginosa WspR after 5 mins in presence of [32P]-c-di-GMP
[4] = Allosteric inhibition of Pseudomonas aeruginosa WspR using [32P]-GTP as substrate measured for 1 hr by thin layer chromatographic analysis
[5] = target: T1, Cyclic di-GMP phosphodiesterase RocR (Pseudomonas aeruginosa (strain ATCC 15692 / PAO1 / 1C / PRS 101 / LMG12228)) (UniProt Q9HX69); test: Inhibition of Pseudomonas aeruginosa PAO1 His6-tagged RocR expressed in Escherichia coli BL21 (DE3) using [32P]-GTP as substrate at 100 uM after 120 mins by thin layer chromatographic analysis
T1 sequence (whole entry): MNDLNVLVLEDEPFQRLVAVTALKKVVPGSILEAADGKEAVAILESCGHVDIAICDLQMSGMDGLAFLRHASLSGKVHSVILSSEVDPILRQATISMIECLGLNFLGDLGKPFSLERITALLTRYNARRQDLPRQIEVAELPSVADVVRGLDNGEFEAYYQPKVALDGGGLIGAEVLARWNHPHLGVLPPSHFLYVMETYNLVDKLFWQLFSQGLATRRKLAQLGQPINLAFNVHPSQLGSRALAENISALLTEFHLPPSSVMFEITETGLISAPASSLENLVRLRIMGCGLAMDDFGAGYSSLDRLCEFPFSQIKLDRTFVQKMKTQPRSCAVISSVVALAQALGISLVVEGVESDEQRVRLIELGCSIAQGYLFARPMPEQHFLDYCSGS

Pseudomonas aeruginosa = test: Inhibition of Pseudomonas aeruginosa WspR using [32P]-GTP as substrate at 100 uM after 120 mins by thin layer chromatographic analysis
[6] = Competitive binding affinity to Pseudomonas aeruginosa Alg44 PilZ domain after 5 mins in presence of [32P]-c-di-GMP
[7] = target: T2, Cyclic di-GMP phosphodiesterase RocR (Pseudomonas aeruginosa (strain ATCC 15692 / PAO1 / 1C / PRS 101 / LMG12228), UniProt Q9HX69); test: Competitive binding affinity to Pseudomonas aeruginosa PAO1 His6-tagged RocR expressed in Escherichia coli BL21 (DE3) after 5 mins in presence of [32P]-c-di-GMP
T2 sequence (Q9HX69 whole entry): T1 sequence (whole entry)

SMILES	inhibition [1]	inhibition [2]	IC50 [3] [µM]	Ki [4] [µM]	inhibition [5]	inhibition (Pseudomonas aeruginosa)	IC50 [6] [µM]	IC50 [7] [µM]
Nc1nc2c(ncn2[C@@H]2O[C@@H]3COP(=O)(O)O[C@H]4[C@@H](O)[C@H](n5cnc6c(=O)[nH]c(N)nc65)O[C@@H]4COP(=O)(O)O[C@H]3[C@H]2O)c(=O)[nH]1	Active	inactive	48.9	15.4	Active	Active	7.69	–
Nc1nc2c(ncn2[C@@H]2O[C@@H]3CO[P@](=O)(O)O[C@H]4[C@@H](O)[C@H](n5cnc6c(=O)[nH]c(N)nc65)O[C@@H]4CO[P@](=O)(O)O[C@H]3[C@H]2O)c(=O)[nH]1	–	–	–	–	–	–	–	0.02
Nc1nc2c(ncn2[C@@H]2O[C@@H]3COP(=O)(O)O[C@H]4[C@@H](F)[C@H](n5cnc6c(=O)[nH]c(N)nc65)O[C@@H]4COP(=O)(O)O[C@H]3[C@H]2F)c(=O)[nH]1	Active	inactive	11	12.6	Active	Active	3.12	0.72
CO[C@@H]1[C@@H]2OP(=O)(O)OC[C@H]3O[C@@H](n4cnc5c(=O)[nH]c(N)nc54)[C@H](OC)[C@@H]3OP(=O)(O)OC[C@H]2O[C@H]1n1cnc2c(=O)[nH]c(N)nc21	–	–	> 100	–	–	–	> 100	6.41
Nc1nc2c(ncn2[C@H]2C[C@@H]3OP(=O)(O)OC[C@H]4O[C@@H](n5cnc6c(=O)[nH]c(N)nc65)C[C@@H]4OP(=O)(O)OC[C@H]3O2)c(=O)[nH]1	–	–	> 100	–	–	–	13.4	0.02
